Reference: patent publication US20240197828A1, “Chimeric molecule to treat sepsis and other inflammatory conditions” (THE FEINSTEIN INSTITUTES FOR MEDICAL RESEARCH, priority 2022, published 2024)

How the values were obtained:
RAW264.7 macrophages = test: Intracellular uptake of FITC-rmCIRP by macrophages (flow cytometry, confocal microscopy); type: cell-based, mouse; settings: RAW264.7, FITC-rmCIRP 1 μg/mL co-incubated with test substance (peptide 10 μg/mL), 1 hour, vs FITC-rmCIRP alone
Method: FIG. 3. Effects of MOP peptides MOP-3, MOP-8 and MOP-14 on eCIRP. Flow cytometry experiment whereby RAW264.7 macrophages were treated for 1 hour according to respective group: PBS (volume-equivalent), FITC-rmCIRP (1 μg/mL), or a mixture of FITC-rmCIRP (1 μg/mL) with each respective peptide (10 μg/mL) after co-incubating for 30 minutes. Intracellular FITC-rmCIRP was analyzed by flow cytometry. Median fluorescence intensity (MFI) reported as percentage relative to PBS-treated RAW264.7 cells. Data from two independent experiments are expressed as mean±SEM and compared by one-way ANOVA and SNK test. *p<0.05 vs. PBS, #p<0.05 vs. eCIRP.
(§1) Computational modeling was used to determine the likely domain of MFG-E8's binding to eCIRP. The known amino acid (AA) sequence of this domain was used to develop and test potential therapeutic peptides. An MFG-E8 derived oligopeptide, MOP3, was developed based on 15 AA from MFG-E8 discoidin 2 domain (mimicking MFG-E8's C-terminal) and tagged with the 3 AA, RGD, (mimicking MFG-E8's binding capacity for the integrin receptor at the N-terminal). Binding of MOP3 to CIRP was quantified using Surface Plasmon Resonance (SPR) analysis. Macrophages (RAW264.7 cells) were treated with FITC-recombinant mouse (rm)-CIRP or co-incubated MOP3 and FITC-rmCIRP with and without a. Br-integrin Ab. After 1 h, cells were fixed and analyzed for intracellular FITC-rmCIRP by flow cytometry. Macrophages were stimulated with rmCIRP or co-incubated mixture of MOP3 and rmCIRP. After 4 h, cell culture supernatants were analyzed for inflammatory cytokine, TNFα.
Mouse macrophage cell line, RAW264.7 cells were obtained from American Type Culture Collection (ATCC) and cultured in DMEM media with 10% FBS, 1% penicillin and streptomycin, and 1% glutamine. Cells were kept in 37° C. incubator under humidified conditions containing 5% CO2.
rmCIRP was labeled using a FITC Conjugation Kit (Abcam, ab188285), and rmMFG-E8 was labeled using Alexa Fluor Conjugation Kit (Abcam, ab269821), both according to respective manufacturer's instructions.
In order to visualize cellular uptake, we initially utilized TRITC-BSA as an internal probe, as BSA is taken up into cells primarily by endocytosis and retained intracellularly after fixation (27, 28). For further visualization of intracellular localization, we utilized LAMP1 primary antibody (as it is distributed among endolysosomal organelles and serves as a marker for lysosomal compartments) (29), and utilized lysotracker in live cell experiments (as it allows for imaging of dynamics of lysosome vesicle movements) (30). RAW264.7 cells were treated in various conditions with rmCIRP, rmMFG-E8, and inhibitory antibody against auß3-integrin (Bioss antibodies, bs-1310R) for 4 hours. Cells were fixed with 4% paraformaldehyde (PFA), washed with 1×PBS, permeabilized using 0.3% Triton x100, and blocked using 5% BSA 100 mM Glycine in PBS prior to primary antibody treatment. After incubation with secondary antibodies, cells were washed and mounted with ProLong Gold antifade reagent (Invitrogen). For live cell imaging, cells remained in treatment conditions and were imaged under CO2. Staining procedures were performed according to the manufacturers' instructions utilizing respective fluorescent dyes and probes. For all imaging, confocal microscopy images were obtained using a Zeiss LSM880 confocal microscope equipped with a 63× objective. Images were quantified and analyzed using Image J, FIJI.(31) Flow cytometry.
To detect changes in internalized eCIRP in the presence of MFG-E8, RAW264.7 cells were seeded in 12-well plates (approximately 3×10^5 cells/well) and were treated with FITC-eCIRP. Treatment groups consisted of FITC-eCIRP, FITC-eCIRP with MFG-E8, FITC-eCIRP with MFG-E8 and αvβ3-integrin antibody (0.5 μg/mL), or FITC-eCIRP with MFG-E8 and IgG isotype (0.5 μg/mL). Similar experiments were conducted with MOP3 instead of MFG-E8 in parallel groups. […]

RAW264.7 cells = test: eCIRP-induced cytokine release in RAW264.7 cells (ELISA of supernatants); type: cell-based, mouse; settings: RAW264.7, rmCIRP 1 μg/mL, 4 hours, vs rmCIRP alone
Method: FIG. 2. Effects of MOP peptides on TNFα levels. RAW264.7 macrophages were cultured and treated with either volume-equivalent PBS, recombinant murine (rm) CIRP (eCIRP; 1 μg/mL), or rmCIRP with each respective peptide (10 μg/mL). After 4 hours, cell supernatants were assessed for TNFα levels by ELISA. Experiments were performed 3 times, and all data were used for analysis. Data are expressed as mean±SEM and compared by one-way ANOVA and SNK test. *p<0.05 vs. PBS, #p<0.05 vs. eCIRP.
FIG. 4. eCIRP-induced inflammation is attenuated by MOP3. RAW264.7 cells were treated according to respective groups: PBS (volume equivalent), rmCIRP (1 μg/mL), or rmCIRP with MOP3 at increasing doses. After 4 hours, cell supernatants were analyzed for TNFα levels by ELISA. Experiments were performed 3 times, and all data were used for analysis. Data are expressed as mean #SEM and compared by one-way ANOVA and SNK test. *p<0.05 vs. PBS, #p<0.05 vs. eCIRP.
as §1
Mouse macrophage cell line, RAW264.7 cells were obtained from American Type Culture Collection (ATCC) and cultured in DMEM media with 10% FBS, 1% penicillin and streptomycin, and 1% glutamine. Cells were kept in 37° C. incubator under humidified conditions containing 5% CO2. […]
The mouse macrophage cell culture supernatants were analyzed for cytokine levels using ELISA kits (BD Biosciences, CA). […] TNF-α and IL-6 levels were measured in cell supernatants by ELISA in accordance with respective manufacturers' instructions (BD Biosciences, CA). Blood was collected, centrifuged at 4,000 RPM for 10 minutes, and sera was separated and analyzed for cytokine levels using ELISA kits (BD Biosciences, CA). TNF-α and IL-6 levels in the serum were measured by ELISA in accordance with respective manufacturers' instructions.

Substance | intracellular FITC-rmCIRP uptake (flow cytometry) (RAW264.7 macrophages) | TNFα levels in cell supernatants (RAW264.7 cells)
MOP3-modification to “RGT”: modified peptide whereby the Arg-Gly-Asp AAs of MOP3 were edited to Arg-Gly-Thr (RGT) (RGTSSSYKTWNLRAFGWY) [reference compound] | loss of ability to internalize FITC-eCIRP | 
RGDPFMARYVRVLPVSWH (listed as Mus musculus) [MOP14, RGD-tagged segment of murine MFG-E8 discoidin domain 2] | only a single peptide screened, peptide-3, could increase intracellular uptake | capable of attenuating TNFα release
RGDVTGIITQGARDFGHI (listed as Mus musculus) [MOP8, RGD-tagged segment of murine MFG-E8 discoidin domain 2] | only a single peptide screened, peptide-3, could increase intracellular uptake | capable of attenuating TNFα release
